Results on 29 molecules are retold here after patent publication US20050075400A1, “Polymorphic forms of nateglinide” (priority 2002, published 2005).

Where two headings read alike, the source gives them in different places.

Data set [1] can be described thus: Thermal stability / form transformation on heating or drying (XRPD). The data set is classed as physicochemical. The settings on record: for form after heating at about 100° C.: 100° C. oil bath, 8.5 h; for form after heating at about 100° C. / form after heating at 120° C.: XRPD; for form after heating at 120° C.: 1 h, atmospheric pressure; for form obtained upon drying / heating: heating under ambient or reduced pressure, generally about 40-80° C. As for the experimental part:
The various crystalline forms are related to each other in that drying of one form may result in a transformation to another form, namely nateglinide Forms A, B, D, E, F, G, H, I, J, K, L, M, N, Q, S, T, V, Z, α, β, δ, γ, ε, θ and Ω. The drying is carried out by heating a sample under ambient or reduced pressure. Generally, a preferred temperature is from about 40° C. to about 80° C., more preferably under reduced pressure. […] The term “stable” as used herein refers to a polymorphic change of less than about 5% by weight, more preferably less than about 2%, particularly for Form δ.
Sample of nateglinide form U (˜1 g) was introduced into a 6-gram vial and heated over 8.5 h in a 100° C. oil bath. The vial were extracted from the bath.
Sample of nateglinide form U (˜0.5 g) was heated to 120° C. for 1 h in an atmospheric pressure.
Sample of nateglinide form δ (˜0.5 g) was heated to 120° C. for 1 h in an atmospheric pressure.

Data set [2] in a line: Polymorphic stability on storage at room temperature for 24 h (XRPD). The data set is classed as physicochemical. The settings on record: for crystal form after storage at RT for 24 h: room temperature and pressure, 24 h (about a day), open bottle, XRPD. As for the experimental part: The various crystalline forms are also analyzed by Thermal Gravimetric Analysis (TGA). […] In contrast to the above listed forms, TGA profiles of forms L, P, U, α, δ and σ show no significant weight loss. These polymorphic forms of nateglinide are free of bound solvents, i.e., less than about 2% LOD. Table II lists the solvents used for the preparation for nateglinide solvated forms, as well as LOD values based on TGA analysis.
Storage at room temperature and pressure may also cause a transition of one form to another.
X-Ray diffraction was performed on X-Ray powder diffractometer, Scintag variable goniometer, Cu-tube, solid state detector. Sample holder: A round standard aluminum sample holder with round zero background quartz plate.
The sample was put on the sample holder and immediately analyzed as is. Scanning parameters: Range: 2-40 deg 2θ, Continuos Scan, Rate: 3 deg./min.

Data set [3] is described as follows: Stability at about 40° C. and about 75% relative humidity. The note with it: about 40° C., relative humidity about 75%. Type of data set: physicochemical. As for the experimental part:
Crystalline Form δ is stable at a temperature of about 40° C. and a relative humidity of about 75% for at least about 3 months.

The conditions of data set [4]: cited from earlier work.
The conditions of data set [5]: demonstrated by DSC; cited from earlier work.
A short description of data set [6]: Absorption of solvent vapors by nateglinide Form H. The note with it: for Δ (overweight): room temperature, 4 d. The data set is classed as physicochemical. The procedure: Nateglinide (3.50 g) was added to a polypropylene can and weighed. The can was introduced into a bigger polypropylene container containing a solvent, and stored at room temperature. The can was removed from the container and weighed (Wfinal). The can content was divided into 2 portions. One portion was dried at a temperature of 55° C. and a pressure of 20-30 mmHg to constant weight (±0.01 g).

As to `CC(C)[C@H]1CC[C@H](C(=O)N[C@H](Cc2ccccc2)C(=O)O)CC1` [Form U, nateglinide], in data set [1], the “thermal stability (conversion to another form upon heating)” value (“thermal stability” for short) is listed as “thermally stable”, the “form after heating at about 100° C.” value is recorded as “does not undergo a transition” and the “form after heating at 120° C.” value is reported as “Form U”. Moreover, the “form after heating at about 100° C.” value in data set [1] (listed as form U) is “Form U”.

Regarding `CC(C)[C@H]1CC[C@H](C(=O)N[C@H](Cc2ccccc2)C(=O)O)CC1` [Form T, nateglinide], in data set [1], the “form obtained upon drying / heating” value is “convert to a mixture of Form B and G”. The “crystal form after storage at RT for 24 h” value (“crystal form after storage” below) is on record as “converts to Form E” in data set [2] and “Form E” in data set [2] (listed as T).

`CC(C)[C@H]1CC[C@H](C(=O)N[C@H](Cc2ccccc2)C(=O)O)CC1` [Form δ, nateglinide]: in data set [1], the “thermal stability” value is on record as “somewhat stable”, the “form after heating at 120° C.” value is “results in Form B” and the “form obtained upon drying / heating” value is “convert to Form B”. For the same molecule, the “polymorph after drying in a stirred reactor” value in data set [1] (60 mmHg vacuum, 60° C., 6 hours) is “remained delta form”. For the same molecule, the “stability when heated to 60° C. overnight” value in data set [1] (60° C., overnight (at least about 8 hours)) was “stable”. In addition, the “form after heating at 120° C.” value in data set [1] (listed as form δ) is “Form B”. For the same molecule, the “polymorphic form after drying in a fluidized bed drier” value in data set [1] (4 hours at 60° C.) was “delta”. Moreover, in data set [3], the “time for which the crystalline form is stable” value is “at least 3 months”.

For `CC(C)[C@H]1CC[C@H](C(=O)N[C@H](Cc2ccccc2)C(=O)O)CC1` [nateglinide, (−)—N-(trans-4-isopropylcyclohexanecarbonyl)-D-Phenylalanine], the solubility entry in data set [4] (in acetonitrile) is given as “sparingly soluble”; in data set [4] (in chloroform) it was “freely soluble”; in data set [4] (in ethanol), “freely soluble”; in data set [4] (in ether), “soluble”; in data set [4] (in methanol), “freely soluble”; in data set [4] (in octanol), “sparingly soluble”. The solubility result in data set [4] (in water) is recorded as “practically insoluble”.

In the case of `CC(C)[C@H]1CC[C@H](C(=O)N[C@H](Cc2ccccc2)C(=O)O)CC1` [Form Ω, nateglinide], in data set [1] (50° C., vacuum oven, overnight, XRD), the “form after drying in a vacuum oven” value was “mixture of Form omega and Form Z”. The “form obtained upon drying / heating” value in data set [1] was “convert to Form B”.

As to `CC(C)[C@H]1CC[C@H](C(=O)N[C@H](Cc2ccccc2)C(=O)O)CC1` [Form Q, nateglinide], the “form obtained upon drying / heating” value in data set [1] is on record as “convert to Form B”. The “crystal form after storage” value is “converts to Form Y” in data set [2] and “Form Y, which contains” in data set [2] (listed as Q).

Regarding `CC(C)[C@H]1CC[C@H](C(=O)N[C@H](Cc2ccccc2)C(=O)O)CC1` [Form B, nateglinide], the “thermal stability” value in data set [1] is “thermally stable”. Besides, in data set [5], the stability during grinding entry was “unstable and susceptible to change during grinding”.

Consider `CC(C)[C@H]1CC[C@H](C(=O)N[C@H](Cc2ccccc2)C(=O)O)CC1` [acetonitrile solvate of Form Epsilon, nateglinide], for which the “form obtained upon drying / heating” value in data set [1] was “Form B”.

For the molecule `CC(C)[C@H]1CC[C@H](C(=O)N[C@H](Cc2ccccc2)C(=O)O)CC1` [Form I, nateglinide], the “crystal form after storage” value is given as “converts to Form L” in data set [2] and “Form L” in data set [2] (listed as I).

For `CC(C)[C@H]1CC[C@H](C(=O)N[C@H](Cc2ccccc2)C(=O)O)CC1` [nitromethane solvates of Form Epsilon, nateglinide], the “form obtained upon drying / heating” value in data set [1] was “Forms H or P”.

Consider `CC(C)[C@H]1CC[C@H](C(=O)N[C@H](Cc2ccccc2)C(=O)O)CC1` [Form ε, nateglinide], for which the “form obtained upon drying / heating” value in data set [1] is given as “Form H”.

In the case of `CC(C)[C@H]1CC[C@H](C(=O)N[C@H](Cc2ccccc2)C(=O)O)CC1` [Form M, nateglinide], the “form obtained upon drying / heating” value in data set [1] is reported as “Form L”.

For the molecule `CC(C)[C@H]1CC[C@H](C(=O)N[C@H](Cc2ccccc2)C(=O)O)CC1` [Form O, nateglinide], the “thermal stability” value in data set [1] was “somewhat stable”.

In the case of `CC(C)[C@H]1CC[C@H](C(=O)N[C@H](Cc2ccccc2)C(=O)O)CC1` [Form A, nateglinide], the “form obtained upon drying / heating” value in data set [1] was “convert to Form B”; in data set [1] (listed as Form a), “Form S”. In addition, the “crystal form after storage” value in data set [2] is given as “partially converts to Form B”; in data set [2] (listed as A) it was “conversion to Form B”.

For `CC(C)[C@H]1CC[C@H](C(=O)N[C@H](Cc2ccccc2)C(=O)O)CC1` [Form E, nateglinide], the “form obtained upon drying / heating” value in data set [1] is given as “convert to Form B”.

Take `CC(C)[C@H]1CC[C@H](C(=O)N[C@H](Cc2ccccc2)C(=O)O)CC1` [Form θ, nateglinide]: in data set [1], the “form obtained upon drying / heating” value was “convert to Form B”.

Consider `CC(C)[C@H]1CC[C@H](C(=O)N[C@H](Cc2ccccc2)C(=O)O)CC1` [Form σ, nateglinide], for which the “thermal stability” value in data set [1] is listed as “thermally stable”.

Regarding `CC(C)[C@H]1CC[C@H](C(=O)N[C@H](Cc2ccccc2)C(=O)O)CC1` [Form L, nateglinide], the “thermal stability” value in data set [1] is “thermally stable”.

`CC(C)[C@H]1CC[C@H](C(=O)N[C@H](Cc2ccccc2)C(=O)O)CC1` [Form G, nateglinide]: in data set [1], the “form obtained upon drying / heating” value is “convert to Form B”.

For `CC(C)[C@H]1CC[C@H](C(=O)N[C@H](Cc2ccccc2)C(=O)O)CC1` [Form Z, nateglinide], the “form obtained upon drying / heating” value in data set [1] is given as “convert to Form B”.

For `CC(C)[C@H]1CC[C@H](C(=O)N[C@H](Cc2ccccc2)C(=O)O)CC1` [Form F, nateglinide], the “form obtained upon drying / heating” value in data set [1] was “convert to a mixture of Form B and G”.

As for `CC(C)[C@H]1CC[C@H](C(=O)N[C@H](Cc2ccccc2)C(=O)O)CC1` [Form N, nateglinide], in data set [1], the “form obtained upon drying / heating” value is “Form L”.

For the molecule `CC(C)[C@H]1CC[C@H](C(=O)N[C@H](Cc2ccccc2)C(=O)O)CC1` [Form C, nateglinide], in data set [1], the “form obtained upon drying / heating” value is on record as “convert to Form B”.

Regarding `CC(C)[C@H]1CC[C@H](C(=O)N[C@H](Cc2ccccc2)C(=O)O)CC1` [Form β, nateglinide], the “form obtained upon drying / heating” value in data set [1] is “convert to Form B”.

Turning to `CC(C)[C@H]1CC[C@H](C(=O)N[C@H](Cc2ccccc2)C(=O)O)CC1` [Form H, nateglinide], the “thermal stability” value in data set [1] is given as “thermally stable”. The “Δ (overweight)” value in data set [6] (Acetone vapors, 3.50 g NTG) amounted to 0.08; in data set [6] (DCM vapors, 3.49 g NTG), 0.04; in data set [6] (EtOH vapors, 3.50 g NTG) it was 0.52; in data set [6] (MeOH vapors, 3.50 g NTG), 0.18; in data set [6] (Water vapors, 3.50 g NTG), 0.02. For the same molecule, the “stability in the presence of solvent vapors” value in data set [6] (vapors of water and acetone) is listed as “stable”.

Consider `CC(C)[C@H]1CC[C@H](C(=O)N[C@H](Cc2ccccc2)C(=O)O)CC1` [Form J, nateglinide], for which the “form obtained upon drying / heating” value in data set [1] is given as “convert to Form B”. In data set [2] (room temperature, overnight), the “XRD pattern after storage at RT for overnight” value was “XRD pattern slightly”.

Turning to `CC(C)[C@H]1CC[C@H](C(=O)N[C@H](Cc2ccccc2)C(=O)O)CC1` [Form α, nateglinide], in data set [1], the “thermal stability” value was “somewhat stable” and the “form obtained upon drying / heating” value was “convert to Form B”.

In the case of `CC(C)[C@H]1CC[C@H](C(=O)N[C@H](Cc2ccccc2)C(=O)O)CC1` [Form Y, nateglinide], in data set [1], the “thermal stability” value is reported as “somewhat stable”.

For `CC(C)[C@H]1CC[C@H](C(=O)N[C@H](Cc2ccccc2)C(=O)O)CC1` [Form V, nateglinide], the “form obtained upon drying / heating” value in data set [1] is “Form H”.
